{"source": "patent US5462861A", "about": "“Method for improving enzyme activities with noble gases” (American Air Liquide, Chicago Research Center, priority 1993, dated 1995)", "key": {"lyase enzymes": {"system": "lyase enzymes", "assay": "Lyases, effects for the class", "assay_type": "biochemical", "method": "(§1) Solution preparation: Optimized w/v solutions are prepared by diluting the enzyme (units/ml) and the substrate (μg/ml) in appropriate buffer (optimized pH and molarity for enzymes). The solutions are used for gas experiments at once to avoid loss of activity. Various enzyme and substrate concentrations and inhibitors may be employed. Physical parameters are varied as required.\n(§2) Preparation of samples: Cuvets are filled with 2 ml of substrate solution by means of a gas-tight syringe. Gas-tight serum vials are filled with enzyme and solvent. Sufficient gas is consecutively bubbled in the cuvets and serum vials, with a 1-hr wait between injections to maximize equilibration of gas. […] The amount of gas used has been measured sufficient to saturate the solution required.\n(§3) Spectrophotometric time-drive, reaction rate, and kinetic analyses: cuvets and serum vials are saturated with gas 40 minutes before the run. […] Changes in the rate or final equilibrium of the reaction versus ambient air are recorded. […]\n(§4) In a complete experiment, an enzyme at optimal pH and buffering salt concentration is reacted with 5 substrate concentrations in solution with noble gas at 1 atm. […] The reaction is monitored colorimetrically in a scanning spectrophotometer in real time, and the signals are treated mathematically to obtain rate and yield differences. […]"}, "isomerase enzymes": {"system": "isomerase enzymes", "assay": "Isomerases, effects for the class", "assay_type": "biochemical", "method": "as §1, §2, §3, §4"}, "lactate dehydrogenase": {"system": "lactate dehydrogenase", "assay": "Lactate dehydrogenase activity under gas", "assay_type": "biochemical", "details": "10° C., FIG. 42", "method": "Solution preparation: Optimized w/v solutions are prepared by diluting the enzyme (units/ml) and the substrate (μg/ml) in appropriate buffer (optimized pH and molarity for enzymes). The solutions are used for gas experiments at once to avoid loss of activity. Various enzyme and substrate concentrations and inhibitors may be employed. Physical parameters are varied as required. […] Gas-tight serum vials are filled with enzyme and solvent. Sufficient gas is consecutively bubbled in the cuvets and serum vials, with a 1-hr wait between injections to maximize equilibration of gas. All syringes and dead spaces are purged before filling with the appropriate gas. The amount of gas used has been measured sufficient to saturate the solution required. Spectrophotometric time-drive, reaction rate, and kinetic analyses: cuvets and serum vials are saturated with gas 40 minutes before the run. A gas-filled syringe is used to retrieve 0.5 ml of enzyme solution to avoid air contact. […] Changes in the rate or final equilibrium of the reaction versus ambient air are recorded. Comparison is also made with added oxygen, and with deoxygenation. Some samples are also prepared under pressure."}, "β-glucosidase": {"system": "β-glucosidase", "assay": "Kinetic analyses, β-glucosidase", "assay_type": "biochemical", "set-up": "Rates G5 / Rates G5, Calculated: unit not given beside the values", "method": "(§5) Absorbance curve data as previously exemplified reveal differences in enzymatic activity under different gas atmospheres both in terms of yield and in terms of rate. Yield can be calculated after equilibrium is reached by comparative curve differencing, and through formal linearization and calculation--which are also necessary for rate calculations. Rate differences are calculated using commercially available computer programs (ENZFITTER, GRAFIT, ENZPACK, PEAKFIT) which transform the initial uv/vis absorbance data curve (in these examples, a power curve) into straight lines (linear regression of power curve). These lines may be expressed as a mathematical equation in which the slope is approximately the rate, and the limit Y-intercept is approximately the yield. […] The examples and figures described below represent these steps in exemplary form.\nTable 1 illustrates Michaelis-Menten enzyme kinetics calculations of Vmax and Km, and the rates for each reaction. Vmax is the limiting rate, Km is the Michaelis-Menten constant.\nFIG. 46 and Table 2 illustrate the same as FIG. 45 and Table 1, however, for xenon reactions. It is readily apparent that the Vmax and Km for xenon are larger.\nFIG. 47, Table 3, FIG. 48 and Table 4 illustrate the first-order power curve regression rate linear transformations for the above air and xenon gassed reactions, showing an approximation to the Michaelis-Menten data, wherein the Xe/Air rate relationship is in the same ratio as above.\nFIG. 49, FIG. 50 and Table 5 illustrate the same first-order rate approximation regression linearizations for all gases studied in this run."}, "β-D-Glucosidase": {"target": "T1, β-D-Glucosidase (Caldicellulosiruptor saccharolyticus, UniProt P10482)", "T1 construct": "purchased Sigma G-0898; host or cells: E. coli", "T1 sequence (P10482 whole entry)": "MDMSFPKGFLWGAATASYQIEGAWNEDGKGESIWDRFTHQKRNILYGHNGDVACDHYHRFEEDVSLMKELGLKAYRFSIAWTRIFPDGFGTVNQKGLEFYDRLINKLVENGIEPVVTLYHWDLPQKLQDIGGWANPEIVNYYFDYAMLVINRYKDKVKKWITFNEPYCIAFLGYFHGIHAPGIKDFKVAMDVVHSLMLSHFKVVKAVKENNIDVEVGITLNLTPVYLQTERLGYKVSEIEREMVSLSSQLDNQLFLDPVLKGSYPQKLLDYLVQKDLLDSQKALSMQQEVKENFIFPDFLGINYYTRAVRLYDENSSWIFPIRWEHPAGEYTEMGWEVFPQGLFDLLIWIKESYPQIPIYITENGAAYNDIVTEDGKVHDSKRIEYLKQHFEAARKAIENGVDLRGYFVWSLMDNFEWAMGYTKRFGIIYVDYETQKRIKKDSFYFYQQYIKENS", "assay": "Immobilized enzymes: β-D-glucosidase under air or xenon", "assay_type": "biochemical, Caldocellum saccharolyticum", "details": "25° C., FIG. 44", "method": "Theory: Same gases effects on either free or immobilized enzymes.\nβ-D-Glucosidase (SIGMA) No. G-0898)\nFrom Caldocellum saccharolyticum: Recombinant (pfs)\nSoln C1: β-D-Glucosidase solution in Na Phos. buffer pH 6.6 (25 ° C.) (2.18 Units/ml)\n(For insoluble enzymes lyophilized powders, SIGMA recommends to suspend the required amount to 5-10 mg solid/ml H2 O and to allow brief hydration). We allowed a brief hydration (until solution appears)\nSample: 2 ml Soln B+0.5 ml Soln C1\nCPRG: β-Glucosidase: 25° C."}, "tyrosinase": {"system": "tyrosinase", "assay": "Kinetic analyses, tyrosinase", "assay_type": "biochemical", "method": "as §5\nFIG. 51, Table 6, FIG. 52 and Table 7 illustrate data from the first 160 seconds of a single tyrosinase experiment expressed as power curves for air, then for xenon gassing."}, "particulate sialidase": {"system": "particulate sialidase", "details": "Sandhoff et al, FEBS Letters 1976; cited from earlier work"}, "[1]": {"details": "1st order rate equation, [S] = 60 micrograms/ml, Table 4"}}}
{"smiles": "[Ar]", "note": "[Ar, argon]", "values": [{"measurement": "effect on lyases", "setting": "lyase enzymes", "result": "least such effect"}, {"measurement": "effect on isomerases", "setting": "isomerase enzymes", "result": "can be induced to inhibit enzyme activity at higher temperatures"}]}
{"smiles": "[Ne]", "note": "[Ne, neon]", "values": [{"measurement": "effect on lactate dehydrogenase", "setting": "lactate dehydrogenase", "result": "inhibiting"}]}
{"smiles": "[Xe]", "note": "[Xe, xenon]", "values": [{"measurement": "Vmax and Km compared with air", "setting": "β-glucosidase", "result": "larger"}, {"measurement": "Limit", "setting": "β-glucosidase; [1]", "result": 0.8382}, {"measurement": "Rate constant", "setting": "β-glucosidase; [1]", "result": 0.0045}, {"measurement": "V max", "setting": "β-glucosidase; Michaelis-Menten, Gas 5: Xenon, Table 2", "result": 0.0028}, {"measurement": "Rates G5", "setting": "β-glucosidase; [S] 20.0000", "result": 0.0032}, {"measurement": "Rates G5, Calculated", "setting": "β-glucosidase; [S] 20.0000", "result": 0.0032}, {"measurement": "Rates G5", "setting": "β-glucosidase; [S] 40.0000", "result": 0.0029}, {"measurement": "Rates G5, Calculated", "setting": "β-glucosidase; [S] 40.0000", "result": 0.0029}, {"measurement": "Rates G5", "setting": "β-glucosidase; [S] 60.0000", "result": 0.0027}, {"measurement": "Rates G5, Calculated", "setting": "β-glucosidase; [S] 60.0000", "result": 0.0029}, {"measurement": "Rates G5", "setting": "β-glucosidase; [S] 80.0000", "result": 0.0030}, {"measurement": "Rates G5, Calculated", "setting": "β-glucosidase; [S] 80.0000", "result": 0.0029}, {"measurement": "Rates G5", "setting": "β-glucosidase; [S] 100.0000", "result": 0.0029}, {"measurement": "Rates G5, Calculated", "setting": "β-glucosidase; [S] 100.0000", "result": 0.0028}, {"measurement": "effect on β-glucosidase reaction", "setting": "β-glucosidase; power curve analysis / linearization, FIGS. 49 and 50", "result": "significant enhancement"}, {"measurement": "effect on lyases", "setting": "lyase enzymes", "result": "largest enhancing effect"}, {"measurement": "effect on β-glucosidase in immobilized form", "setting": "β-D-Glucosidase", "result": "enhancing"}, {"measurement": "V max", "setting": "tyrosinase; Michaelis-Menten, Gas 5: Xenon, Table 7, first 160 seconds", "result": 0.0001}, {"measurement": "Y, Calculated", "setting": "tyrosinase; [S] 10.0000", "result": -0.0001}, {"measurement": "Y, Gas 5: Xenon (rate)", "setting": "tyrosinase; [S] 10.0000", "result": 0.0007}, {"measurement": "Y, Calculated", "setting": "tyrosinase; [S] 20.0000", "result": -0.0003}, {"measurement": "Y, Gas 5: Xenon (rate)", "setting": "tyrosinase; [S] 20.0000", "result": 0.0019}, {"measurement": "Y, Calculated", "setting": "tyrosinase; [S] 30.0000", "result": 0.0017}, {"measurement": "Y, Gas 5: Xenon (rate)", "setting": "tyrosinase; [S] 30.0000", "result": 0.0019}, {"measurement": "Y, Calculated", "setting": "tyrosinase; [S] 40.0000", "result": 0.0004}, {"measurement": "Y, Gas 5: Xenon (rate)", "setting": "tyrosinase; [S] 40.0000", "result": 0.0019}, {"measurement": "Y, Calculated", "setting": "tyrosinase; [S] 50.0000", "result": 0.0003}, {"measurement": "Y, Gas 5: Xenon (rate)", "setting": "tyrosinase; [S] 50.0000", "result": 0.0004}, {"measurement": "effect on tyrosinase activity", "setting": "tyrosinase; linearized rate regression and Michaelis-Menten calculations", "result": "strongly inhibiting tyrosinase activity"}, {"measurement": "effect on activity of particulate sialidase", "setting": "particulate sialidase", "result": "enhance the activity"}, {"measurement": "effect on lactate dehydrogenase", "setting": "lactate dehydrogenase", "result": "enhancing"}]}
